Data on 30 compounds can be found in PMC8286840, “Identifying SARS-CoV-2 antiviral compounds by screening for small molecule inhibitors of Nsp3 papain-like protease” (Biochemical Journal, 2021).

Experiment [1] concerns the target T1, SARS-CoV-2 PLpro (nsp3 1564–1878) (Severe acute respiratory syndrome coronavirus 2, UniProt P0DTD1). Description: biochemical. The settings on record: low concentration screen, read-out: % of control remaining. More on the design: FRET-quenched peptide (Pro3) cleavage by PLpro, 10 min pre-incubation, slope over 20 min, normalised to no-compound control.
The target of experiment [2] is T1, SARS-CoV-2 PLpro (nsp3 1564–1878). Put plainly: biochemical. More on the design: FRET-quenched peptide (Pro3) cleavage by PLpro, 10 min pre-incubation, slope over 20 min, normalised to no-compound control. The settings on record: high concentration screen, read-out: % of control remaining.

Structures can show the parent of a compound that is named as a salt. Where two headings read alike, the source gives them in different places. Where no end group is shown, it is not given here.

Turning to `Cc1cn([C@@H]2O[C@H](CO)[C@@H](O)[C@H]2O)c(=O)nc1N` [5-Methylcytidine], the remaining activity at 1.25 µM stood at 103% in experiment [1] (Well no.=6585) and 100% in experiment [1] (Well no.=8853). For the same compound, the remaining activity at 3.75 µM was determined as 104% in experiment [2] (Well no.=6585) and 88.8% in experiment [2] (Well no.=8853).
Turning to `COC[C@H]1OC(=O)c2coc3c2[C@@]1(C)C1=C(C3=O)[C@@H]2CCC(=O)[C@@]2(C)C[C@H]1OC(C)=O` [Wortmannin], the remaining activity at 1.25 µM in experiment [1] (Well no.=3232) was found to be 99.9%. The remaining activity at 3.75 µM in experiment [2] (Well no.=3232) stood at 102%.
`N#Cc1c(C2CCNCC2)cc(-c2c(O)cccc2OCC2CC2)nc1N` [IKK-2 Inhibitor VIII]: the remaining activity at 1.25 µM in experiment [1] (Well no.=2441) is 104%. Further, in experiment [2] (Well no.=2441), the remaining activity at 3.75 µM stood at 108%.
On to `N[C@@H](CC(=O)O)C(=O)O` [L-Aspartic acid], for which, in experiment [1] (Well no.=248), the remaining activity at 1.25 µM turned out to be 96.2%. The remaining activity at 3.75 µM in experiment [2] (Well no.=248) was determined as 97.3%; in experiment [2] (Well no.=7683), 106%.
As for `C[C@]12CCC(=O)C(O)=C1CC[C@@H]1[C@@H]2CC[C@]2(C)C(=O)CC[C@@H]12` [4-Androsten-4-ol-3,17-dione], in experiment [1] (Well no.=305), the remaining activity at 1.25 µM came out at 96.5%. Moreover, the remaining activity at 3.75 µM in experiment [2] (Well no.=305) turned out to be 93.5%.
On to `CCCCc1ncc(/C=C(\Cc2cccs2)C(=O)O)n1Cc1ccc(C(=O)O)cc1` [Eprosartan (mesylate)], for which the remaining activity at 1.25 µM in experiment [1] (Well no.=8191) worked out at 105%. Also, in experiment [2] (Well no.=8191), the remaining activity at 3.75 µM came out at 105%.
Regarding `O=c1c(-c2ccc(O)cc2)coc2cc(O[C@@H]3O[C@H](CO)[C@@H](O)[C@H](O)[C@H]3O)cc(O)c12` [Genistin], the remaining activity at 1.25 µM in experiment [1] (Well no.=3213) was 99.7%. Moreover, the remaining activity at 3.75 µM in experiment [2] (Well no.=3213) turned out to be 97.9%.
Take `O=S(=O)(NCCNC/C=C/c1ccc(Br)cc1)c1cccc2cnccc12` [H 89 dihydrochloride - N-[2-[[3-(4-Bromophenyl)-2-propenyl]amino]ethyl]-5-isoquinolinesulfonamide dihydrochloride]: the remaining activity at 1.25 µM in experiment [1] (Well no.=2636) worked out at 95.6%. The remaining activity at 3.75 µM in experiment [2] (Well no.=2636) turned out to be 99.1%.
As to `OB1OCc2cc(F)ccc21` [5-fluoro-2,1-benzoxaborol-1(3H)-ol], the remaining activity at 1.25 µM in experiment [1] (Well no.=5477) came out at 103%. The remaining activity at 3.75 µM in experiment [2] (Well no.=5477) was 109%.
On to `CN1CCN(c2ccc3nc(-c4cc(C(C)(C)C)c(OCCCC(=O)NCCCN=[N+]=[N-])c(C(C)(C)C)c4)[nH]c3c2)CC1` [MIR96-IN-1], for which, in experiment [1] (Well no.=7014), the remaining activity at 1.25 µM was found to be 94.6%. Besides, in experiment [2] (Well no.=7014), the remaining activity at 3.75 µM was determined as 81.9%.
In the case of DRVYVHPF [Angiotensin II 5-valine], the figures for the remaining activity at 1.25 µM in experiment [1] (Well no.=7899) and in experiment [1] (Well no.=7986) were 98.8% and 90.3%, respectively. Moreover, the remaining activity at 3.75 µM in experiment [2] (Well no.=7899) was 97.5%; in experiment [2] (Well no.=7986) it was 89.7%.
Regarding `CC1(C)CCC(CN2CCN(c3ccc(C(=O)NS(=O)(=O)c4ccc(NCC5CCOCC5)c([N+](=O)[O-])c4)c(Oc4cnc5[nH]ccc5c4)c3)CC2)=C(c2ccc(Cl)cc2)C1` [Venetoclax], the remaining activity at 1.25 µM in experiment [1] (Well no.=6396) was determined as 107%; in experiment [1] (Well no.=7400), 91.2%. Also, the remaining activity at 3.75 µM in experiment [2] (Well no.=6396) turned out to be 104%; in experiment [2] (Well no.=7400), 94.7%.
Turning to `C[C@H]1CCN(C(=O)CC#N)C[C@H]1N(C)c1ncnc2[nH]ccc12` [Tasocitinib], the remaining activity at 1.25 µM in experiment [1] (Well no.=2789) turned out to be 103%. In experiment [2] (Well no.=2789), the remaining activity at 3.75 µM was determined as 98.6%.
For `CCCN1CCC[C@@H]2Cc3nc(N)ncc3C[C@H]21` [Quinelorane dihydrochloride], in experiment [1] (Well no.=1413), the remaining activity at 1.25 µM came out at 95.1%. Also, the remaining activity at 3.75 µM in experiment [2] (Well no.=1413) was determined as 98.2%.
As to `CC(C)[C@H](N=C(NS(=O)(=O)c1ccc(Cl)cc1)N1C[C@H](c2ccccc2)C(c2ccc(Cl)cc2)=N1)C(N)=O` [JD-5037], the remaining activity at 1.25 µM in experiment [1] (Well no.=8487) was 97.2%. For the same compound, the remaining activity at 3.75 µM in experiment [2] (Well no.=8487) was found to be 82.1%.
Turning to `CCCCOc1cc(CC2CNC(=O)N2)ccc1OC` (stereo not shown) [Ro 20-1724], the remaining activity at 1.25 µM in experiment [1] (Well no.=225) came out at 102%. Besides, in experiment [2] (Well no.=225), the remaining activity at 3.75 µM came out at 100%.
Take `CCCCCC(O)c1cccc(OCc2ccc3ccccc3n2)c1` (stereo not shown) [REV 5901]: the remaining activity at 1.25 µM in experiment [1] (Well no.=1158) was 104%. For the same compound, the remaining activity at 3.75 µM in experiment [2] (Well no.=1158) is 101%.
In the case of `N=C(N)SCCc1cccc(CCSC(=N)N)c1` [1,3-PBIT dihydrobromide], the remaining activity at 1.25 µM in experiment [1] (Well no.=1159) turned out to be 104%. Moreover, the remaining activity at 3.75 µM in experiment [2] (Well no.=1159) worked out at 104%.
As for `CNC(=C[N+](=O)[O-])NCCSCc1ccc(CN(C)C)o1` [Ranitidine.HCl], the remaining activity at 1.25 µM in experiment [1] (Well no.=1642) is 105%. Further, in experiment [2] (Well no.=1642), the remaining activity at 3.75 µM came to 105%.
As for `C[N+](C)(C)CCOC(N)=O` [Carbachol], in experiment [1] (Well no.=32), the remaining activity at 1.25 µM was 95.6%. The remaining activity at 3.75 µM in experiment [2] (Well no.=32) is 99%.
With `OC[C@H]1O[C@@H](n2cnc3c(NCCc4c[nH]c5ccccc45)ncnc32)[C@H](O)[C@@H]1O` [A2AR-agonist-1], in experiment [1] (Well no.=8653), the remaining activity at 1.25 µM came to 105%. Further, the remaining activity at 3.75 µM in experiment [2] (Well no.=8653) was determined as 105%.
For `CCOc1ccc(-n2c([C@@H](C)N(Cc3cccnc3)C(=O)Cc3ccc(F)c(C(F)(F)F)c3)nc3ncccc3c2=O)cc1` [NBI-74330], in experiment [1] (Well no.=8611), the remaining activity at 1.25 µM was determined as 108%. For the same compound, in experiment [2] (Well no.=8611), the remaining activity at 3.75 µM is 97.8%.
Consider `OCCN1CCN(CC/C=C2/c3ccccc3Sc3ccc(C(F)(F)F)cc32)CC1` [cis-(Z)-Flupenthixol dihydrochloride], for which, in experiment [1] (Well no.=617), the remaining activity at 1.25 µM worked out at 99.6%. Also, the remaining activity at 3.75 µM in experiment [2] (Well no.=617) amounted to 98.7%.
Regarding `NS(=O)(=O)c1ccc(S(=O)(=O)Nc2cccc3c(Cl)c[nH]c23)cc1` [Indisulam], the remaining activity at 1.25 µM in experiment [1] (Well no.=6068) stood at 94.4%. Besides, the remaining activity at 3.75 µM in experiment [2] (Well no.=6068) came out at 95%.
With `Cc1ncc([N+](=O)[O-])n1CC(O)CCl` (stereo not shown) [Ornidazole], the remaining activity at 1.25 µM in experiment [1] (Well no.=4939) is 101%. Also, the remaining activity at 3.75 µM in experiment [2] (Well no.=4939) came out at 97.6%.
Take `C[C@H](NC(=O)[C@@H](O)c1cc(F)cc(F)c1)C(=O)N[C@@H]1C(=O)N(C)c2ccccc2-c2ccccc21` [LY411575]: in experiment [1] (Well no.=4689), the remaining activity at 1.25 µM was 102%. For the same compound, the remaining activity at 3.75 µM in experiment [2] (Well no.=4689) was 101%.
For `CN(C)CCN(C)CCc1ccc(Cl)c(Cl)c1` [BD 1047 dihydrobromide], the remaining activity at 1.25 µM in experiment [1] (Well no.=5470) is 101%. In addition, the remaining activity at 3.75 µM in experiment [2] (Well no.=5470) worked out at 108%.
`COc1ccc2[nH]cc(C3=CCNCC3)c2c1` [RU 24969]: the remaining activity at 1.25 µM in experiment [1] (Well no.=7997) turned out to be 104%. Besides, in experiment [2] (Well no.=7997), the remaining activity at 3.75 µM came to 102%.
`O=c1c(-c2ccc(O)cc2)coc2cc(O[C@@H]3O[C@H](CO)[C@@H](O)[C@H](O)[C@H]3O)ccc12` [Daidzin]: in experiment [1] (Well no.=3249), the remaining activity at 1.25 µM was determined as 103%. In experiment [2] (Well no.=3249), the remaining activity at 3.75 µM is 102%.
Consider `CCCCCCCC/C=C\CCCCCCCC(=O)NCc1ccc(O)c(OC)c1` [Olvanil], for which, in experiment [1] (Well no.=5771), the remaining activity at 1.25 µM is 94.2%. Besides, the remaining activity at 3.75 µM in experiment [2] (Well no.=5771) was 90%.
